Assays:
[1] = target: T1, Peroxisome proliferator-activated receptor alpha (Homo sapiens, UniProt Q07869); assay: Agonist activity at GAL4 tagged human PPARalpha ligand binding domain expressed in HEK293 cells by luciferase reporter gene assay; assay type: cell-based
T1 sequence (Q07869 whole entry): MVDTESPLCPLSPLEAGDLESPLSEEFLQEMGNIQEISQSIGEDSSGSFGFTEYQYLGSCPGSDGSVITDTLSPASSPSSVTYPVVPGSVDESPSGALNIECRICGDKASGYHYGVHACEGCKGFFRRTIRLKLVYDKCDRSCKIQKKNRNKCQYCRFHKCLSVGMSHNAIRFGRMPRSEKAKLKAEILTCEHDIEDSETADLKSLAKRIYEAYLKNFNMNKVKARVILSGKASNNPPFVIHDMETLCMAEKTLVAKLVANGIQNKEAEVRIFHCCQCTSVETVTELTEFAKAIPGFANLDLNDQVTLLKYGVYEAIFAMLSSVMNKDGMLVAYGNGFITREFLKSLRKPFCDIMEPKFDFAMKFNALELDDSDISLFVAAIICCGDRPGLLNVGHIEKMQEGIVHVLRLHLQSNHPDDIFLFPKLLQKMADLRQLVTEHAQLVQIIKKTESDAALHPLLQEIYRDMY

[2] = target: T2, Peroxisome proliferator-activated receptor gamma (Homo sapiens, UniProt P37231); assay: Agonist activity at GAL4 tagged human PPARgamma ligand binding domain expressed in HEK293 cells by luciferase reporter gene assay; assay type: cell-based
T2 sequence (P37231 whole entry): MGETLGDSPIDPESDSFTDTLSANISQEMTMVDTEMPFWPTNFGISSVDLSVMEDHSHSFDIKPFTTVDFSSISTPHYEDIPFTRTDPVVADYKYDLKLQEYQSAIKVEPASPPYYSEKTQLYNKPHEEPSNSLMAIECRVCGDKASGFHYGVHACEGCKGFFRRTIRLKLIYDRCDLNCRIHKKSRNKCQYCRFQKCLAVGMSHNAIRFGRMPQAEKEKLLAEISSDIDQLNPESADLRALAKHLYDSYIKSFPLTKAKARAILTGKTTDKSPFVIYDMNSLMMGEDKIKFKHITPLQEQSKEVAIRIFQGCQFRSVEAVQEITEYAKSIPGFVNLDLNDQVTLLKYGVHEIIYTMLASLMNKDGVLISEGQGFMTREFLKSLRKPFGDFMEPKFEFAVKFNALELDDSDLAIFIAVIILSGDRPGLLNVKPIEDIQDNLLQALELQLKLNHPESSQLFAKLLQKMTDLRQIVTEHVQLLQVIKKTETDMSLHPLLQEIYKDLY

[3] = target: T1, Peroxisome proliferator-activated receptor alpha; assay: Binding affinity to PPARalpha (unknown origin) using fluorescein-tagged dual PPARalpha/gamma activator by homogeneous fluorescence polarization binding assay
[4] = target: T2, Peroxisome proliferator-activated receptor gamma
Description: Binding affinity to PPARgamma (unknown origin) using fluorescein-tagged dual PPARalpha/gamma activator by homogeneous fluorescence polarization binding assay

Compound	EC50 ([1]; hek293)	EC50 [2] [nM]	EC50 ([1]; read-out: EC50) [nM]	IC50 [3] [nM]	IC50 [4] [nM]
COc1ccc(OC(=O)N2[C@H](C(=O)O)CC[C@H]2c2ccc(OCCc3nc(-c4ccccc4)oc3C)cc2)cc1	Not Active	50	–	–	–
CCOC(=O)N1C[C@@H](Cc2cccc(OCCc3nc(-c4ccccc4)oc3C)c2)[C@@H](C(=O)O)C1	–	9	3	260	–
CCOC(=O)N1C[C@H](Cc2cccc(OCCc3nc(-c4ccccc4)oc3C)c2)[C@H](C(=O)O)C1	–	> 10000	10900	> 10000	–
Cc1oc(-c2ccccc2)nc1CCOc1cccc(C[C@@H]2CN(c3nccc(C(F)(F)F)n3)C[C@@H]2C(=O)O)c1	–	2500	14	20	40
Cc1oc(-c2ccccc2)nc1CCOc1cccc(C[C@H]2CN(c3nccc(C(F)(F)F)n3)C[C@H]2C(=O)O)c1	–	> 10000	> 10000	1120	110
Cc1oc(-c2ccccc2)nc1CCOc1ccc(C[C@H]2CN(c3nccc(C(F)(F)F)n3)C[C@H]2C(=O)O)cc1	–	> 10000	> 10000	> 10000	1530
Cc1oc(-c2ccccc2)nc1CCOc1ccc(C[C@H]2CN(c3nccc(C(F)(F)F)n3)C[C@@H]2C(=O)O)cc1	–	> 30000	1000	1120	3570
Cc1oc(-c2ccccc2)nc1CCOc1ccc(C[C@@H]2CN(c3nccc(C(F)(F)F)n3)C[C@H]2C(=O)O)cc1	–	> 30000	4410	> 50000	1160
CCOC(=O)N1C[C@@H](Cc2cccc(OCCc3nc(-c4ccccc4)oc3C)c2)[C@@H](CC(=O)O)C1	–	> 10000	2870	5550	–
Cc1oc(-c2ccccc2)nc1CCOc1ccc(C[C@@H]2CN(c3nccc(C(F)(F)F)n3)C[C@@H]2C(=O)O)cc1 (racemic)	–	50	30	740	30
CCOC(=O)N1C[C@H](C(=O)O)[C@H](c2ccc(OCCc3nc(-c4ccccc4)oc3C)cc2)C1 (racemic)	–	> 32000	> 15000	> 10000	> 10000
CCOC(=O)N1C[C@H](C(=O)O)[C@@H](c2ccc(OCCc3nc(-c4ccccc4)oc3C)cc2)C1 (racemic)	–	> 32000	> 15000	> 10000	> 10000
CCOC(=O)N1C[C@@H](Cc2cccc(OCCc3nc(-c4ccccc4)oc3C)c2)[C@@H](C(=O)O)C1 (racemic)	–	750	10	170	–
CCOC(=O)N1C[C@H](Cc2cccc(OCCc3nc(-c4ccccc4)oc3C)c2)[C@@H](C(=O)O)C1 (racemic)	–	2850	150	2120	–
CCOC(=O)N1C[C@@H](Cc2ccc(OCCc3nc(-c4ccccc4)oc3C)cc2)[C@@H](C(=O)O)C1 (racemic)	–	300	6	2020	2680
Cc1oc(-c2ccccc2)nc1CCOc1ccc(C[C@@H]2CN(c3ncccn3)C[C@@H]2C(=O)O)cc1 (racemic)	–	1060	2910	> 10000	2040
Cc1ccnc(N2C[C@@H](Cc3ccc(OCCc4nc(-c5ccccc5)oc4C)cc3)[C@@H](C(=O)O)C2)n1 (racemic)	–	630	170	3980	450
Cc1oc(-c2ccccc2)nc1CCOc1ccc(C[C@@H]2CN(c3nc4ccccc4o3)C[C@@H]2C(=O)O)cc1 (racemic)	–	2080	2480	2190	590
Cc1oc(-c2ccccc2)nc1CCOc1ccc(C[C@@H]2CN(c3nc(C(F)(F)F)co3)C[C@@H]2C(=O)O)cc1 (racemic)	–	> 30000	1470	5010	50
CCOC(=O)N1C[C@@H](CCc2cccc(OCCc3nc(-c4ccccc4)oc3C)c2)[C@@H](C(=O)O)C1 (racemic)	–	710	200	2690	490

Next, values leading:

EC50 ([1]; hek293)	EC50 [2] [nM]	EC50 ([1]; read-out: EC50) [nM]	IC50 [3] [nM]	IC50 [4] [nM]	Compound
–	2000	4	70	490	Cc1oc(-c2ccccc2)nc1CCOc1cccc(C[C@@H]2CN(C(=O)Oc3ccccc3)C[C@@H]2C(=O)O)c1
–	13300	950	660	590	Cc1oc(-c2ccccc2)nc1CCOc1cccc(C[C@H]2CN(C(=O)Oc3ccccc3)C[C@H]2C(=O)O)c1
–	3440	50	70	80	Cc1oc(-c2ccccc2)nc1CCOc1cccc(C[C@@H]2CN(c3ccccc3)C[C@@H]2C(=O)O)c1
–	> 10000	680	320	140	Cc1oc(-c2ccccc2)nc1CCOc1cccc(C[C@H]2CN(c3ccccc3)C[C@H]2C(=O)O)c1
–	24000	20000	> 10000	> 10000	CCOC(=O)N1C[C@H](C(=O)O)[C@H](c2cccc(OCCc3nc(-c4ccccc4)oc3C)c2)C1 (racemic)
–	5650	1650	> 10000	> 10000	Cc1oc(-c2ccccc2)nc1CCOc1cccc([C@@H]2CN(C(=O)Oc3ccccc3)C[C@@H]2C(=O)O)c1 (racemic)
–	4180	> 15000	> 10000	4470	Cc1oc(-c2ccccc2)nc1CCOc1ccc([C@@H]2CN(C(=O)Oc3ccccc3)C[C@@H]2C(=O)O)cc1 (racemic)
–	10	2580	2860	5860	Cc1oc(-c2ccccc2)nc1CCOc1ccc([C@H]2CN(C(=O)Oc3ccccc3)C[C@@H]2C(=O)O)cc1 (racemic)
–	20	1130	990	910	CCOC(=O)N1C[C@H](CC(=O)O)[C@H](c2cccc(OCCc3nc(-c4ccccc4)oc3C)c2)C1 (racemic)
–	4800	3550	4020	240	Cc1oc(-c2ccccc2)nc1CCOc1cccc([C@@H]2CN(C(=O)Oc3ccccc3)C[C@@H]2CC(=O)O)c1 (racemic)
–	9680	8100	> 10000	5460	CCOC(=O)N1C[C@H](CC(=O)O)[C@@H](c2cccc(OCCc3nc(-c4ccccc4)oc3C)c2)C1 (racemic)
–	14600	11700	> 10000	1820	Cc1oc(-c2ccccc2)nc1CCOc1cccc([C@H]2CN(C(=O)Oc3ccccc3)C[C@@H]2CC(=O)O)c1 (racemic)
–	–	–	> 10000	> 10000	CCOC(=O)N1C[C@H](CC(=O)O)[C@H](c2ccc(OCCc3nc(-c4ccccc4)oc3C)cc2)C1 (racemic)
–	4180	> 15000	> 15000	8310	Cc1oc(-c2ccccc2)nc1CCOc1ccc([C@@H]2CN(C(=O)Oc3ccccc3)C[C@@H]2CC(=O)O)cc1 (racemic)
–	1250	10	220	1330	Cc1oc(-c2ccccc2)nc1CCOc1cccc(C[C@@H]2CN(C(=O)Oc3ccccc3)C[C@@H]2C(=O)O)c1 (racemic)
–	6170	2590	3090	3630	Cc1oc(-c2ccccc2)nc1CCOc1cccc(C[C@H]2CN(C(=O)Oc3ccccc3)C[C@@H]2C(=O)O)c1 (racemic)
–	3410	20	40	220	Cc1oc(-c2ccccc2)nc1CCOc1cccc(C[C@@H]2CN(c3ccccc3)C[C@@H]2C(=O)O)c1 (racemic)
–	630	8	1060	210	Cc1oc(-c2ccccc2)nc1CCOc1cccc(CC[C@@H]2CN(C(=O)Oc3ccccc3)C[C@@H]2C(=O)O)c1 (racemic)
–	1170	2600	> 10000	520	Cc1oc(-c2ccccc2)nc1CCOc1cccc(CC[C@H]2CN(C(=O)Oc3ccccc3)C[C@@H]2C(=O)O)c1 (racemic)
–	> 10000	6	2120	–	CCOC(=O)N1C[C@H](CC(=O)O)[C@@H](Cc2cccc(OCCc3nc(-c4ccccc4)oc3C)c2)C1 (racemic)
